pIC50: −log10 of the molar value.
system: Phosphorylation of STAT6 in human PBMC (CD19+ B cells); assay: Phosphorylated STAT6 (pSTAT6) flow cytometry assay in human PBMC, IL-4 stimulated; format: cell-based; conditions: compound 1 hour, 1 ng/ml IL-4 for 15 minutes, read-out: STAT6 IL4 pSTAT6 assay in PBMC: Average IC50
Method: Example 2. Phosphorylated STAT6 (pSTAT6) Flow Cytometry Assay in Human PBMC
Phosphorylation of STAT6 in human PBMC was quantitatively measured using flow cytometry technology. Human PBMC were seeded in 96-well plates with a density of 0.3 to 0.5 million cells per well in 100 μl fresh media. Compounds were then added to the assay plates with a final top concentration of up to 30 μM in a 1:3 dilution series with total of 9 doses. The assay plates were incubated for 1 hour at 37° C. under 5% CO2. The cells were then stimulated with 1 ng/ml of IL-4 (R&D Systems, Cat #6507-IL) for 15 minutes, followed by fixation for 30 minutes at 4° C. Cells were spun down at 350 g for 5 minutes. The supernatant was removed and cells were washed once with FACS buffer. Cells were permeabilized with 90% MeOH/H2O for 30 minutes at 4° C., followed by one wash with FACS buffer. Non-specific binding were blocked with human Fc for 1 hour at 4 C, followed by one wash with FACS buffer. AF488 conjugated pSTAT6 antibody (BD Biosciences, Cat #612600, 1:100 dilution) and PE conjugated CD19 antibody (BD Biosciences, Cat #341103, 1:50 dilution) diluted in 100 μl FACS buffer was added to each well with overnight incubation at 4° C. Cells were then washed once with FACS buffer and resuspended in 200 μl of FACS buffer for flow cytometry to quantify pSTAT6 in CD19+ B cells. The data was analyzed by GraphPad Prism and the dose dependent pSTAT6 inhibition was fit using the four-parameter inhibitor vs. response nonlinear regression.

SMILES	pIC50
CN(C)C(=O)c1cc2ccc(C3=CCCN(C(=O)CCc4ccon4)C3)cc2[nH]1 [Example I-20]	< 4.00
CN(C)C(=O)c1cc2cc(C3=CCCN(C(=O)Cc4ccccc4)C3)ccc2o1 [Example I-283]	< 4.00
CN(C)C(=O)c1cc2cc(C3=CCCN(C(=O)C4Cc5c(cccc5C5CCNCC5)CN4C=O)C3)ccc2o1 (centres unmarked) [Example I-181]	< 4.00
CC(=O)N1CCC(c2cc(C3=CCCN(C(=O)CCn4ccnn4)C3)cc3cc(C(=O)N(C)C)oc23)CC1 [Example I-190]	4.00 to 5.00
CN(C)C(=O)c1cc2ccc(C3=CCCN(C(=O)CCn4nncc4CO)C3)cc2[nH]1 [Example I-13]	6.00 to 7.00
CN(C)C(=O)c1cc2ccc(C3=CCCN(C(=O)Cn4ccccc4=O)C3)cc2[nH]1 [Example I-316]	< 4.00
CN(C)C(=O)c1cc2ccc(C3=CCCN(C(=O)CCc4ccccn4)C3)cc2[nH]1 [Example I-212]	4.00 to 5.00
CN(C)C(=O)c1cc2ccc(C3=CCCN(C(=O)c4nonc4C4CC4)C3)cc2[nH]1 [Example I-44]	4.00 to 5.00
CN(C)C(=O)c1cc2ccc(C3=CCCN(C(=O)CCS(=O)(=O)c4ccccc4)C3)cc2[nH]1 [Example I-66]	5.00 to 6.00
CN(C)C(=O)c1cc2ccc(C3=CCCN(C(=O)c4cc(C#N)ccc4Br)C3)cc2[nH]1 [Example I-144]	< 4.00
CN(C)C(=O)c1cc2ccc(C3=CCCN(C(=O)CC(C)(O)C(F)(F)F)C3)cc2[nH]1 (centres unmarked) [Example I-46]	4.00 to 5.00
CCC[C@@H](C(=O)N1CCC=C(c2ccc3cc(C(=O)N(C)C)[nH]c3c2)C1)N1Cc2ccccc2C1=O [Example I-96]	4.00 to 5.00
CC(=O)NC(Cc1cccc(F)c1)C(=O)N1CCC=C(c2ccc3cc(C(=O)N(C)C)[nH]c3c2)C1 (centres unmarked) [Example I-82]	4.00 to 5.00
CN(C)C(=O)c1cc2cc(C3=CCCN(C(=O)Cn4cccn4)C3)ccc2o1 [Example I-261]	< 4.00
CN(C)C(=O)c1cc2ccc(C3=CCCN(C(=O)C4(c5ccc(Cl)cc5)CC(O)C4)C3)cc2[nH]1 (centres unmarked) [Example I-78]	< 4.00
CN(C)C(=O)c1cc2cc(C3=CCCN(C(=O)CCc4cccnc4)C3)ccc2o1 [Example I-301]	< 4.00
CN(C)C(=O)c1cc2ccc(C3=CCCN(C(=O)C(c4ccc(F)cc4)c4ccc(F)cc4)C3)cc2[nH]1 [Example I-160]	< 4.00
CN(C)C(=O)c1cc2cc(C3=CCCN(C(=O)CCc4ccccn4)C3)ccc2o1 [Example I-268]	< 4.00
CN(C)C(=O)c1cc2ccc(C3=CCCN(C(=O)[C@@H]4CCCN4C(=O)c4ccc(F)cc4)C3)cc2[nH]1 [Example I-99]	< 4.00
CN(C)C(=O)c1cc2cc(C3=CCCN(C(=O)Cn4cncn4)C3)ccc2o1 [Example I-315]	< 4.00
CN(C)C(=O)c1cc2ccc(C3=CCCN(C(=O)c4ccc(-c5ccc(Cl)cc5)cc4)C3)cc2[nH]1 [Example I-83]	4.00 to 5.00
CN(C)C(=O)c1cc2cc(C3=CCCN(C(=O)CC4CCOCC4)C3)ccc2o1 [Example I-255]	< 4.00

SMILES	pIC50
COC(=O)CCC#Cc1cc(C2=CCCN(C(=O)C3Cc4ccccc4CN3C=O)C2)cc2cc(C(=O)N(C)C)oc12 (centres unmarked) [Example I-184]	4.00 to 5.00
CN(C)C(=O)c1cc2ccc(C3=CCCN(C(=O)c4c[nH]nc4I)C3)cc2[nH]1 [Example I-34]	4.00 to 5.00
COC(=O)C1CCC(c2ccc3oc(C(=O)N(C)C)cc3c2)CN1C(=O)CCn1ccnn1 (mixture of isomers) [Example I-1]	< 4.00
CN(C)C(=O)c1cc2ccc(C3=CCCN(C(=O)C4ON=C(c5ccccc5)O4)C3)cc2[nH]1 (centres unmarked) [Example I-71]	4.00 to 5.00
CN(C)C(=O)c1cc2cc(C3=CCCN(C(=O)CCn4ccnn4)C3)cc(N3CCNCC3)c2o1 [Example I-191]	< 4.00
CN(C)C(=O)c1cc2cc(C3=CCCN(C(=O)CCc4ncns4)C3)ccc2o1 [Example I-165]	< 4.00
CN(C)C(=O)c1nc2ccc(C3=CCCN(C(=O)CCn4ccnn4)C3)cc2s1 [Example I-227]	4.00 to 5.00
CN(C)C(=O)c1cc2ccc(C3=CCCN(C(=O)C4CS(=O)(=O)C4)C3)cc2[nH]1 [Example I-163]	< 4.00
CN(C)C(=O)c1cc2cc(C3=CCCN(C(=O)CCc4nncs4)C3)ccc2o1 [Example I-147]	< 4.00
CN(C)C(=O)c1cc2c(F)c(C3=CCCN(C(=O)CCn4ccnn4)C3)ccc2o1 [Example I-323]	6.00 to 7.00
O=C(CCn1ccnn1)N1CCC=C(c2c[nH]c3cc(-n4ccccc4=O)ccc23)C1 [Example I-277]	< 4.00
CC(=O)NC(Cn1ccnn1)C(=O)N1CCC=C(c2ccc3oc(C(=O)N(C)C)cc3c2)C1 (centres unmarked) [Example I-178]	< 4.00
CN(C)C(=O)c1cc2cc(C3=CCCN(C(=O)Cc4cccc5ccccc45)C3)ccc2o1 [Example I-294]	< 4.00
CN(C)C(=O)c1cc2cc(C3=CCCN(C(=O)CCn4cnc5ccccc54)C3)ccc2o1 [Example I-265]	< 4.00
CN(C)C(=O)c1cc2ccc(C3=CCCN(C(=O)c4snnc4C4CC4)C3)cc2[nH]1 [Example I-143]	< 4.00
Cc1ccc(C(=O)N2CCC=C(c3ccc4cc(C(=O)N(C)C)[nH]c4c3)C2)c(=O)n1-c1ccc(F)cc1 [Example I-111]	< 4.00
CC(C(=O)N1CCC=C(c2ccc3cc(C(=O)N(C)C)[nH]c3c2)C1)n1ccccc1=O (centres unmarked) [Example I-53]	5.00 to 6.00
CN(C)C(=O)c1cc2cc(C3=CCCN(C(=O)C4Cc5ccccc5CN4C)C3)ccc2o1 (centres unmarked) [Example I-285]	< 4.00
CN(C)C(=O)c1cc2ccc(C3=CCCN(C(=O)C4(c5ccc(C(F)(F)F)cc5)CC4)C3)cc2[nH]1 [Example I-84]	< 4.00
CN(C)C(=O)c1cc2ncc(C3=CCCN(C(=O)CCn4ccnn4)C3)cc2[nH]1 [Example I-194]	< 4.00
CN(C)C(=O)c1cc2ccc(C3=CCCN(C(=O)C4CC4F)C3)cc2[nH]1 (centres unmarked) [Example I-25]	< 4.00
CN(C)C(=O)c1cc2ccc(C3=CCCN(C(=O)c4ccccc4C(=O)c4ccc(F)cc4)C3)cc2[nH]1 [Example I-108]	< 4.00

SMILES	pIC50
CN(C)C(=O)c1cc2ccc(C3=CCCN(C(=O)[C@@H]4C[C@H](c5ccccc5)CN4)C3)cc2[nH]1 [Example I-76]	< 4.00
CN(C)C(=O)c1cc2cc(C3=CCCN(C(=O)CCc4cccc5ccccc45)C3)ccc2o1 [Example I-291]	< 4.00
CN(C)C(=O)c1cc2ccc(C3=CCCN(C(=O)CCn4ncc5cc(Cl)ncc54)C3)cc2[nH]1 [Example I-80]	< 4.00
CN(C)C(=O)c1cc2cc(C3=CCCN(C(=O)Cc4ccc5c(c4)CN(C(=O)OC(C)(C)C)CC5)C3)ccc2o1 [Example I-259]	< 4.00
CC1CCCN(C(=O)c2cc3ccc(C4=CCCN(C(=O)CCn5ccnn5)C4)cc3[nH]2)C1 (centres unmarked) [Example I-126]	< 4.00
COC(=O)[C@H]1CC[C@H](c2ccc3oc(C(=O)N(C)C)cc3c2)CN1C(=O)CCn1ccnn1 (single isomer, unassigned) [Example I-152]	< 4.00
CNCc1cccc2c1CC(C(=O)N1CCC=C(c3ccc4oc(C(=O)N(C)C)cc4c3)C1)N(C=O)C2 (centres unmarked) [Example I-148]	< 4.00
CN(C)C(=O)c1cc2cc([C@@H]3CN(C(=O)CCn4ccnn4)CC[C@H]3O)ccc2o1 (single isomer, unassigned) [Example I-209]	< 4.00
CC(=O)N1Cc2ccccc2CC1C(=O)N1CCC=C(c2ccc3oc(C(=O)N(C)C)cc3c2)C1 (centres unmarked) [Example I-232]	< 4.00
O=C(CCn1ccnn1)N1CCC=C(c2ccc3cc(-c4ccccn4)[nH]c3c2)C1 [Example I-119]	< 4.00
CN(C)C(=O)c1cc2ccc(C3=CCCN(C(=O)c4ccc5c(n4)OCCO5)C3)cc2[nH]1 [Example I-58]	< 4.00
CN(C)C(=O)c1cc2cc(C3=CCCN(C(=O)CCn4ccnn4)C3)cnc2[nH]1 [Example I-222]	4.00 to 5.00
CNc1ccc(-c2cc(C3=CCCN(C(=O)CCn4ccnn4)C3)cc3[nH]c(C(=O)N(C)C)cc23)cc1 [Example I-113]	> 7.00
CN(C)C(=O)c1cc2cc(C3=CCCN(C(=O)CCn4ccnn4)C3)ccc2[nH]1 [Example I-308]	< 4.00
Cc1cc(Cl)c(S(C)(=O)=O)cc1C(=O)N1CCC=C(c2ccc3cc(C(=O)N(C)C)[nH]c3c2)C1 [Example I-74]	4.00 to 5.00
CN(C)C(=O)c1cc2ccc(C3=CCCN(C(=O)C4CCN(c5ncccc5C(=O)O)CC4)C3)cc2[nH]1 [Example I-109]	4.00 to 5.00
Cc1cccc(C)c1N1CC(C(=O)N2CCC=C(c3ccc4cc(C(=O)N(C)C)[nH]c4c3)C2)CC1=O (centres unmarked) [Example I-97]	4.00 to 5.00
CC(=O)NC(C(=O)N1CCC=C(c2ccc3cc(C(=O)N(C)C)[nH]c3c2)C1)c1cccc(Cl)c1 (centres unmarked) [Example I-77]	4.00 to 5.00
CC(=O)N1Cc2ccccc2CC1C(=O)N1CCC=C(c2ccc3oc(C(=O)N(C)C)cc3c2)C1 (centres unmarked) [Example I-170]	< 4.00
CN(C)C(=O)c1cc2ccc(C3=CCCN(C(=O)Cc4c[nH]nn4)C3)cc2[nH]1 [Example I-38]	< 4.00
CNc1ccc(-c2cc(C3=CCCN(C(=O)CCn4ccnn4)C3)cc3[nH]c(C(=O)N(C)C)cc23)c(Cl)c1 [Example I-118]	> 7.00
